According to US4211764A, “Gastric secretion stimulation with 2-amino-5-(2-aminoethyl)-1,3,4-thiadiozole” (priority 1978, dated 1980):
“Also recorded” adds a separate entry of the source. Like-named read-outs stand apart in the source and are kept apart here.

Columns and labels:
H2 -ceptors = H2 -ceptors (Canis lupus familiaris, UniProt P17124); experiment: Gastric secretion in dogs with gastric fistula, intramuscular injection
Method: (§1) Chronic experiments were performed on male dogs weighing 20 to 25 kg and having a gastric fistula; prior to experiments, the animals were starved for 18 hours.
The gastric juice was analyzed for titratable acidity and proteolytic activity. The hydrochloric acid output was calculated in milliequivalents (mEq) and that of pepsin in milligrams.

dog's stomach = experiment: Gastric secretion in dogs, administration per os; format: in vivo
Method: as §1

gastric juice = experiment: Acute Shay test (pylorus ligation); format: in vivo, rat; conditions: rats, 8 mg/kg intraperitoneally
Method: Twenty acute Shay tests were performed on male rats weighing 250 to 300 g. The pylorus of each of the animals was ligated 2 hours before the slaughter. The pH and volume of the gastric juice were determined. […] In the control group, pH of the gastric juice was 2.2, and the average HCl output was 0.12 mEq per animal. In the experimental animals, pH of the gastric juice was 1.6, and the HCl output was 0.41 mEq.

H1 -receptors = target: T1, H1 -receptors (Cavia porcellus, UniProt P31389); experiment: Contraction of isolated ileum; conditions: guinea pig ileum; read-out: pD2 value in relation to H1 -receptors (converted)
T1 construct: from tissue; host or cells: isolated guinea pig ileum

[1] = Acute toxicity, guinea pigs; conditions: guinea pig, in vivo, male guinea pigs
Source text: The results of the tests are generalized in Table 1.

Bulbar Conjunctiva = system: Bulbar Conjunctiva; set-up: species or system guinea pigs, rabbits; conditions: in vivo
Source text: C. Irritant Action of 1-5% Solutions On
intramuscular injection

male rabbits = conditions: rabbit, in vivo
Method: | D. Allergic Action | (Arthus-Sakharov Phenomenon) | Daily injections to male rabbits | weighing 3.0 kg, during 6 to 7 days: | test group, hypodermic injections of | 0.1 ml of 1% solution | control group, injections of 0.1 ml | of normal horse serum

Respiration = experiment: Effects on depth and rate of respiration; format: in vivo, rabbits and cats
Source text: E. Effects on Depth and Rate of
Respiration (rabbits and cats)

male dogs = experiment: Chronic toxicity, dogs per os; format: in vivo; conditions: for Bilirubin content / Glutamic-alanine transaminase content: 200 mg per os daily, Test
Method: Three male dogs weighing 22 to 25 kg
1. Administration per os, 200 mg
(in gelatin capsules), admini-
stration performed once a day
during 10 days, one animal being

[2] = system: gastric secretion of patients of middle age group; experiment: Clinical test: effects of maximum doses upon gastric secretion of patients; format: in vivo, human; conditions: 2mg/kg; for Gastric Juice, Δ% / HCl Concentration, Δ% / Hourly HCl output, Δ%: 2nd versus 1st hour
Source text: (§2) Special attention was paid to side effects and the reproductibility of the secretory response after repeated administrations of the drug.

total acidity = experiment: Clinical reproducibility of secretory response (total acidity); format: in vivo, human
Source text: as §2
Reproducibility of Secretory Response to Introduction
of Thidazine and Histamine with Reference to Total
Acidity Values (each group of patients includes 10 persons)
^(x) Percentage of difference is the relationship of the difference
between the total acidity values registered in the first and second tests
of a patient to the greater of these values.

[3] = system: gastric secretion of patients with duodenal ulceration; experiment: Clinical comparison in patients with duodenal ulceration; format: in vivo, human
Source text: as §2
Histamine and Pentagastrin Upon Main Gastric Secretion
Characteristics of Patients With Duodenal Ulceration

gastric secretion = format: in vivo, human
Source text: as §2
The clinical investigation also helped to determine effective doses of the proposed preparation for submaximum and maximum tests and different forms of administration.

H1 - and H2 -receptors = experiment: Comparison of effects upon H1 - and H2 -receptors of different objects
Method: Changes in the heart rate were measured, dose-response curves were plotted, and pD2 values were calculated.

H2 -receptors = H2 -receptors (Rattus norvegicus, UniProt P25102); conditions: uterus horn
Method: Contractions of an isolated horn of uterus of a rat due to the effect of acetylcholine in a concentration of 1.10^-6 M were recorded on a paper tape.

[4] = 0.1-0.2 mg/kg i/m, Control Period
[5] = 0.1-0.2 mg/kg i/v, Control Period
[6] = hypodermic, 1st hour (basal secretion)
[7] = hypodermic, 2nd hour (response to drug)
[8] = per os, 1st hour (basal secretion)
[9] = per os, 2nd hour (response to drug)

H2 -ceptors, sequence (P17124 whole entry): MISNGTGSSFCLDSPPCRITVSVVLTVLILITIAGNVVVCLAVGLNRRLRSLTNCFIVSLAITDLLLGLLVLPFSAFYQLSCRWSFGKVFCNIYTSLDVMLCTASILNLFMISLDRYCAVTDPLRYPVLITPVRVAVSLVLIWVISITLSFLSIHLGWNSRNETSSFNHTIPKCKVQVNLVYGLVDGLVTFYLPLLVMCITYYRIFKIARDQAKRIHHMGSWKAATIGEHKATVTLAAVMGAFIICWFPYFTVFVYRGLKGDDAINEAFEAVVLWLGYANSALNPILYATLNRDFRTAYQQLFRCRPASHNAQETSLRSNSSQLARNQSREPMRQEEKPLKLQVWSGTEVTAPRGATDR
T1 sequence (P31389 whole entry): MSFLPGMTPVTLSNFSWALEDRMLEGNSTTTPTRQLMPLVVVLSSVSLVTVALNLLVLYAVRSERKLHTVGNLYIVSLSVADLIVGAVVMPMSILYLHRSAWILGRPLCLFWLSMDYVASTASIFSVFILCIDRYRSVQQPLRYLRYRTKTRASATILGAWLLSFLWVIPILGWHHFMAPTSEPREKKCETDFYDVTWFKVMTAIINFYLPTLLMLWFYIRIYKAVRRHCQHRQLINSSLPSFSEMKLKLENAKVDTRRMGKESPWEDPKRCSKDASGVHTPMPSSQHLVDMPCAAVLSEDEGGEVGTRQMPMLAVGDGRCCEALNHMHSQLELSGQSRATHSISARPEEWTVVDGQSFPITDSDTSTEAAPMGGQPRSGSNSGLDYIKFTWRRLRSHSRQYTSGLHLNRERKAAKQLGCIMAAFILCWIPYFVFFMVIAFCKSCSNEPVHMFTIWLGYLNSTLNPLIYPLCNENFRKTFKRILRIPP
H2 -receptors, sequence (P25102 whole entry): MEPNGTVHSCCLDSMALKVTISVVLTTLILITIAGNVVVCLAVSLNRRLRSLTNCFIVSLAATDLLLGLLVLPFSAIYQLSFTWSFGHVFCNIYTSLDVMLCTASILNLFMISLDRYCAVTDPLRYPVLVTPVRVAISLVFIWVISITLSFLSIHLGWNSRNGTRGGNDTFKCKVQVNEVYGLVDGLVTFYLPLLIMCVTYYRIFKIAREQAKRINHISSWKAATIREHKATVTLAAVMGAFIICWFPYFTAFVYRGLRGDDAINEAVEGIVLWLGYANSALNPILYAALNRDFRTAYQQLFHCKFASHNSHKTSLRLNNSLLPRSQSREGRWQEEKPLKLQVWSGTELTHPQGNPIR

NCCc1nnc(N)s1 [Thidazine, 2-amino-5-(2-aminoethyl)-1,3,4-thiadiazole]
production of maximum level of hydrochloric acid secretion in the stomach (H2 -ceptors; animal (dog)): can produce a maximum level of hydrochloric acid secretion in the stomach of a dog
effect upon arterial pressure, heart rate and general behavior (H2 -ceptors; dog, 3 mg/kg (maximum secretion dose)): no significant effect
maximum dose (H2 -ceptors; dogs, intramuscular): 3.0 mg/kg
maximum hourly output of hydrochloric acid (H2 -ceptors; dogs, intramuscular): 24 mEq per hour
maximum hourly output of pepsin (H2 -ceptors; dogs, intramuscular): 110 mg per hour
minimum active dose (H2 -ceptors; dogs, intramuscular): 0.05 mg/kg
maximum level of gastric secretion (dog's stomach; per os, 100 mg per head): 26 mEq per hour
gastric secretion after administration per os (dog's stomach; thidazine 100 mg per head (parenterally and per os), histamine 10 and 20 mg, histalog 50 and 100 mg): can produce a maximum secretory effect when administered both parenterally and per os; also recorded: can produce a maximum secretion in a dog's stomach when administered both parenterally and perorally
increase of output of hydrochloric acid after ligation of the pylorus (gastric juice): increased the output of hydrochloric acid more than threefold
HCl Output (gastric juice; control group 0.12 mEq per animal): 0.41 mEq
pH of the gastric juice (gastric juice; control group 2.2): 1.6
EC50 (H1 -receptors): 398 µM
LD50 ([1]; ip, 280-350 g, i/p): 360 mg/kg
LD50 ([1]; iv, 200-250 g, i/v): 190 mg/kg
Irritant Action (Bulbar Conjunctiva): Negative reaction
Allergic Action (Arthus-Sakharov Phenomenon) (male rabbits): Negative reaction
Respiration amplitude (Respiration; 1 mg/kg i/v, Control Period): 10.0 ± 0.8 mm
Respiration rate per minute (Respiration; 1 mg/kg i/v, Control Period): 120 ± 10.0 per minute
Respiration amplitude (Respiration; 1 mg/kg i/v, Test Period): 14.0 ± 0.4 mm
Respiration rate per minute (Respiration; 1 mg/kg i/v, Test Period): 85.0 ± 6.0 per minute
Respiration amplitude (Respiration; 2 mg/kg i/v, Control Period): 110.0 ± 7.0 mm
Respiration rate per minute (Respiration; 2 mg/kg i/v, Control Period): 100.0 ± 8.0 per minute
Respiration amplitude (Respiration; 2 mg/kg i/v, Test Period): 140 ± 20.0 mm
Respiration rate per minute (Respiration; 2 mg/kg i/v, Test Period): 85.0 ± 10.0 per minute
Respiration amplitude (Respiration; [4]): 160.0 ± 6.2 mm
Respiration rate per minute (Respiration; [4]): 79.0 ± 2.0 per minute
Respiration amplitude (Respiration; 0.1-0.2 mg/kg i/m, Test Period): 160 ± 10.1 mm
Respiration rate per minute (Respiration; 0.1-0.2 mg/kg i/m, Test Period): 78.0 ± 2.3 per minute
Respiration amplitude (Respiration; [5]): 220 ± 0.3 mm
Respiration rate per minute (Respiration; [5]): 90.0 ± 0.2 per minute
Respiration amplitude (Respiration; 0.1-0.2 mg/kg i/v, Test Period): 180 ± 0.1 mm
Respiration rate per minute (Respiration; 0.1-0.2 mg/kg i/v, Test Period): 85.0 ± 0.4 per minute
Behavior, food reflexes (male dogs; 200 mg per os daily 10 days): No changes
Bilirubin content (male dogs; 5th day): 0.15 mg%
Glutamic-alanine transaminase content (male dogs; 5th day): 30 units
Bilirubin content (male dogs; 10th day): 0.15 mg%
Glutamic-alanine transaminase content (male dogs; 10th day): 32 units
Bilirubin content (male dogs; at beginning): 0.16 mg%
Glutamic-alanine transaminase content (male dogs; beginning): 30 units
Histological Examination of Internal Organs (male dogs; dog, in vivo): No microscopic changes
Urinalysis: volume, specific weight, protein, microscopy of urinary sediment (male dogs; dog, in vivo): No significant changes
Gastric Juice [2, 6]: 87.0 ml per hour
HCl Concentration [2, 6]: 43.9 milliequivalents per liter
Gastric Juice [2, 7]: 200.5 ml per hour
HCl Concentration [2, 7]: 100.8 milliequivalents per liter
Gastric Juice, Δ% ([2]; hypodermic): +130.5%
HCl Concentration, Δ% ([2]; hypodermic): +129.6%
Hourly HCl output, Δ% ([2]; hypodermic): +471.9%
Hourly HCl output ([2]; hypodermic, 11 observations, 1st hour (basal secretion)): 8.2 milliequivalents per hour
Hourly HCl output ([2]; hypodermic, 11 observations, 2nd hour (response to drug)): 18.3 milliequivalents per hour
Gastric Juice [2, 8]: 102.1 ml per hour
HCl Concentration [2, 8]: 33.3 milliequivalents per liter
Gastric Juice [2, 9]: 227.9 ml per hour
HCl Concentration [2, 9]: 103.2 milliequivalents per liter
Gastric Juice, Δ% ([2]; per os): +123%
HCl Concentration, Δ% ([2]; per os): +209.9%
Hourly HCl output, Δ% ([2]; per os): +402.3%
Hourly HCl output ([2]; per os, 13 observations, 1st hour (basal secretion)): 4.3 milliequivalents per hour
Hourly HCl output ([2]; per os, 13 observations, 2nd hour (response to drug)): 21.6 milliequivalents per hour
% of difference (fluctuations) of total acidity, first and second tests (total acidity; 0.7 mg/kg hypodermic): 15-42%
Average difference of total acidity (total acidity; 0.7 mg/kg hypodermic): 31%
% of difference (fluctuations) of total acidity, first and second tests (total acidity; 1.5mg/kg per os): 0-22%
Average difference of total acidity (total acidity; 1.5mg/kg per os): 7.5%
Chymosin Output ([3]; 1st hour (basal secretion)): 17.3 ± 0.3 units per hour
Pepsin Output ([3]; 1st hour (basal secretion)): 4.0 ± 0.7 units per hour
Secretion, milliequivalents per hour ([3]; 1st hour (basal secretion)): 7.25 ± 0.9 Milliequivalents per hour
Chymosin Output ([3]; 2nd hour): 218.2 ± 4.0 units per hour
Pepsin Output ([3]; 2nd hour): 17.8 ± 2.3 units per hour
Secretion, milliequivalents per hour ([3]; 2nd hour): 23.9 ± 1.8 Milliequivalents per hour
dose for maximum secretion test (gastric secretion; hypodermic or intramuscular): 1.6 mg/kg
dose for submaximum secretion test (gastric secretion; hypodermic or intramuscular): 0.8 mg/kg
secretory activity compared with histamine and pentagastrin (gastric secretion; patients, adequate doses): close to histamine and pentagastrin
effectiveness per os compared with parenteral (gastric secretion; patients, tablets or solutions): as effectively as parenterally
dose for maximum secretion test (gastric secretion; per os): 2.0 mg/kg
dose for submaximum secretion test (gastric secretion; per os): 1.5 mg/kg
action upon H2 -receptors compared with H1 -receptors (H1 - and H2 -receptors): the action of thidazine upon H2 -receptors is stronger than its action upon H1 -receptors
Emax (H2 -receptors): 15%
